# According to patent US8691815B2, “Substituted oxindole derivatives, drugs containing said derivatives and the use thereof” (AbbVie Deutschland GmbH & Co. KG, priority 2005, dated 2014):
# Structures can show the parent of a compound that is named as a salt.
# Target: T1, human vasopressin V1b receptor (Homo sapiens, UniProt P47901)
# T1 construct: expressed in transfected cells; host or cells: CHO-K1 (cell line hV1b-3H2_CHO), membrane preparation
# T1 sequence (P47901 1-424): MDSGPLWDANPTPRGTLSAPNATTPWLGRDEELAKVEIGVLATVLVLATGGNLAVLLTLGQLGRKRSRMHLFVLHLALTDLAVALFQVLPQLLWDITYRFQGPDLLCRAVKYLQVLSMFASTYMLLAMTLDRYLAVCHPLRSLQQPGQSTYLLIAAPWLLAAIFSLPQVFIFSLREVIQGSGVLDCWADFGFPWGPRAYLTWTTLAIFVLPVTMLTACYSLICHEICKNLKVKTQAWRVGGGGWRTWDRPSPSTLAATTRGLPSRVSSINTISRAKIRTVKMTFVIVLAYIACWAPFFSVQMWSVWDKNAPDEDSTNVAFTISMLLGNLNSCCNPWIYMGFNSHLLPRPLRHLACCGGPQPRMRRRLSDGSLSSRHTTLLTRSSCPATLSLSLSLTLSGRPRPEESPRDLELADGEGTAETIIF
# Test: Vasopressin V1b receptor binding assay
# Conditions: membranes from CHO-K1 cells with stably expressed human V1b receptors, displacement of 1.5 nM 3H-AVP
# Protocol: Vasopressin V1b Receptor Binding Assay:
# The test substances were dissolved in a concentration of 10^−2 M in DMSO (dimethyl sulfoxide) and further diluted to 5×10^−4 M to 5×10^−9 M in DMSO. This series of DMSO predilutions was diluted 1:10 with assay buffer. The substance concentration was again diluted 1:5 in the assay mixture (2% DMSO in the mixture).
# The membrane pellet was again homogenized and centrifuged as described and then taken up in 50 mM Tris-HCl, pH 7.4, homogenized and stored in aliquots frozen in liquid nitrogen at −190° C.
# The incubation buffer was: 50 mM Tris, 10 mM MgCl2, 0.1% BSA, pH 7.4.
# The nonspecific binding was determined with 1 uM AVP (Bachem # H1780). All determinations were carried out as triplicate determinations. After incubation (60 minutes at room temperature), the free radioligand was removed by vacuum filtration (Skatron cell harvester 7000) through Whatman GF/B glass fiber filter mats, and the filters were transferred into scintillation vials. The liquid scintillation measurement took place in a Tricarb model 2000 or 2200CA instrument (Packard). Conversion of the measured cpm into dpm was carried out with the aid of a standard quench series.
# The binding parameters were calculated by nonlinear regression in SAS.
row,Molecule,Ki
1,"COc1ccc(CN2CCN(C)CC2)cc1C1(N2CCC[C@H]2C(=O)N(C)C)C(=O)N(S(=O)(=O)c2ccc(C#N)cc2)c2ccc(Cl)cc21 (stereo partly drawn) [Example 97, (S)-1-{5-Chloro-1-(4-cyanobenzenesulfonyl)-3-[2-methoxy-5-(4-methylpiperazin-1-yl-methyl)phenyl]-2-oxo-2,3-dihydro-1H-indol-3-yl}pyrrolidine-2-carboxylic acid dimethylamide, trifluoroacetic acid salt]",< 1 nM
2,"COc1cc(CN2CCN(C)CC2)ccc1C1(N2CCC[C@H]2C(=O)N(C)C)C(=O)N(S(=O)(=O)c2ccc(F)cc2)c2ccc(Cl)cc21 (stereo partly drawn) [Example 74, (S)-1-{5-Chloro-1-(4-fluorobenzenesulfonyl)-3-[2-methoxy-4-(4-methylpiperazin-1-yl-methyl)phenyl]-2-oxo-2,3-dihydro-1H-indol-3-yl}pyrrolidine-2-dimethylcarboxamide, trifluoroacetic acid salt]",< 1 nM
3,"COc1ccc(S(=O)(=O)N2C(=O)C(c3ccc(CN(C)CCN(C)C)cc3OC)(N3CCC[C@H]3C(=O)N(C)C)c3cc(Cl)ccc32)c(OC)c1 (stereo partly drawn) [Example 12, (S)-1-[5-Chloro-1-(2,4-dimethoxybenzenesulfonyl)-3-(4-{[(2-dimethylaminoethyl)-methylamino]methyl}-2-methoxyphenyl)-2-oxo-2,3-dihydro-1H-indol-3-yl]pyrrolidine-2-dimethylcarboxamide]",1 to 10 nM
4,"COc1ccc(CNC(C)C)cc1C1(N2CCC[C@H]2C(=O)N(C)C)C(=O)N(S(=O)(=O)c2ccc(C#N)cc2)c2ccc(Cl)cc21 (stereo partly drawn) [Example 101, (S)-1-[5-Chloro-1-(4-cyanobenzenesulfonyl)-3-(5-isopropylaminomethyl-2-methoxy-phenyl)-2-oxo-2,3-dihydro-1H-indol-3-yl]pyrrolidine-2-dimethylcarboxamide, trifluoroacetic acid salt]",< 1 nM
5,"COCCN(C)Cc1ccc(OC)c(C2(N3CCC[C@H]3C(=O)N(C)C)C(=O)N(S(=O)(=O)c3ccc(OC)cc3OC)c3ccc(Cl)cc32)c1 (stereo partly drawn) [Example 33, (S)-1-[5-Chloro-1-(2,4-dimethoxybenzenesulfonyl)-3-(2-methoxy-5-{[(2-methoxy-ethyl)methylamino]methyl}phenyl)-2-oxo-2,3-dihydro-1H-indol-3-yl]pyrrolidine-2-dimethylcarboxamide, trifluoroacetic acid salt]",< 1 nM
6,"COc1ccc(S(=O)(=O)N2C(=O)C(c3ccc(CN4CCOCC4)cc3OC)(N3CCC[C@H]3C(=O)N(C)C)c3cc(Cl)ccc32)cc1 (stereo partly drawn) [Example 71, (S)-1-[5-Chloro-1-(4-methoxybenzenesulfonyl)-3-(2-methoxy-4-morpholin-4-yl-methylphenyl)-2-oxo-2,3-dihydro-1H-indol-3-yl]pyrrolidine-2-dimethylcarboxamide, trifluoroacetic acid salt]",< 1 nM
7,"COc1cc(CN2CCN(C)CC2)ccc1C1(N2CCC[C@H]2C(=O)N(C)C)C(=O)N(S(=O)(=O)c2ccc(C#N)cc2)c2ccc(Cl)cc21 (stereo partly drawn) [Example 80, (S)-1-{5-Chloro-1-(4-cyanobenzenesulfonyl)-3-[2-methoxy-4-(4-methylpiperazin-1-ylmethyl)phenyl]-2-oxo-2,3-dihydro-1H-indol-3-yl}pyrrolidine-2-carboxylic acid dimethylamide, trifluoroacetic acid salt]",< 1 nM
8,"COc1ccc(S(=O)(=O)N2C(=O)C(c3cc(CN(C)CCN(C)C)ccc3OC)(N3CCC[C@H]3C(=O)N(C)C)c3cc(Cl)ccc32)c(OC)c1 (stereo partly drawn) [Example 29, (S)-1-[5-Chloro-1-(2,4-dimethoxybenzenesulfonyl)-3-(5-{[(2-dimethylaminoethyl)-methylamino]methyl}-2-methoxyphenyl)-2-oxo-2,3-dihydro-1H-indol-3-yl]pyrrolidine-2-dimethylcarboxamide, trifluoroacetic acid salt]",< 1 nM
9,"(S)-2-({5-Chloro-1-(2,4-dimethoxybenzenesulfonyl)-3-[2-methoxy-4-(4-methyl-piperazin-1-ylmethyl)phenyl]-2-oxo-2,3-dihydro-1H-indol-3-yl}methylamino)-N,N-dimethyl-propionamide [Example 15]",< 1 nM
10,"COc1ccc(S(=O)(=O)N2C(=O)C(c3cccc(CN(C)C)c3)(N3C[C@H](O)C[C@H]3C(=O)N(C)C)c3cc(Cl)ccc32)c(OC)c1 (single isomer, unassigned) [Example 16]",1 to 10 nM
11,"CCN(C)Cc1ccc(C2(N3CCC[C@H]3C(=O)N(C)C)C(=O)N(S(=O)(=O)c3ccc(OC)cc3)c3ccc(Cl)cc32)c(OC)c1 (stereo partly drawn) [Example 84, (S)-1-[5-Chloro-3-{4-[(ethylmethylamino)methyl]-2-methoxyphenyl}-1-(4-methoxy-benzenesulfonyl)-2-oxo-2,3-dihydro-1H-indol-3-yl]pyrrolidine-2-dimethylcarboxamide, trifluoroacetic acid salt]",< 1 nM
12,"CCCNCc1ccc(OC)c(C2(N3CCC[C@H]3C(=O)N(C)C)C(=O)N(S(=O)(=O)c3ccc(C#N)cc3)c3ccc(Cl)cc32)c1 (stereo partly drawn) [Example 100, (S)-1-[5-Chloro-1-(4-cyanobenzenesulfonyl)-3-(2-methoxy-5-propylaminomethyl-phenyl)-2-oxo-2,3-dihydro-1H-indol-3-yl]pyrrolidine-2-dimethylcarboxamide, trifluoroacetic acid salt]",< 1 nM
13,"COc1cc(CN2CCCC2)ccc1C1(N2CCC[C@H]2C(=O)N(C)C)C(=O)N(S(=O)(=O)c2ccc(C#N)cc2)c2ccc(Cl)cc21 (stereo partly drawn) [Example 5, (S)-1-[5-Chloro-1-(4-cyanobenzenesulfonyl)-3-(2-methoxy-4-pyrrolidin-1-ylmethyl-phenyl)-2-oxo-2,3-dihydro-1H-indol-3-yl]pyrrolidine-2-dimethylcarboxamide, trifluoroacetic acid salt]",< 1 nM
14,"COc1ccc(S(=O)(=O)N2C(=O)C(c3ccc(CN(C)C(C)C)cc3OC)(N3CCC[C@H]3C(=O)N(C)C)c3cc(Cl)ccc32)cc1 (stereo partly drawn) [Example 88, (S)-1-[5-Chloro-3-{4-[(isopropylmethylamino)methyl]-2-methoxyphenyl}-1-(4-methoxy-benzenesulfonyl)-2-oxo-2,3-dihydro-1H-indol-3-yl]pyrrolidine-2-dimethylcarboxamide, trifluoroacetic acid salt]",< 1 nM
15,"COCCN(C)Cc1ccc(OC)c(C2(N3CCC[C@H]3C(=O)N(C)C)C(=O)N(S(=O)(=O)c3ccc(OC)cc3)c3ccc(Cl)cc32)c1 (stereo partly drawn) [Example 32, (S)-1-[5-Chloro-1-(4-methoxybenzenesulfonyl)-3-(2-methoxy-5-{[(2-methoxyethyl)-methylamino]methyl}phenyl)-2-oxo-2,3-dihydro-1H-indol-3-yl]-pyrrolidine-2-dimethyl-carboxamide, trifluoroacetic acid salt]",< 1 nM
16,"COc1cc(CN2CCNCC2)ccc1C1(N2CCC[C@H]2C(=O)N(C)C)C(=O)N(S(=O)(=O)c2ccc(C#N)cc2)c2ccc(Cl)cc21 (stereo partly drawn) [Example 99, (S)-1-[5-Chloro-1-(4-cyanobenzenesulfonyl)-3-(2-methoxy-4-piperazin-1-ylmethyl-phenyl)-2-oxo-2,3-dihydro-1H-indol-3-yl]pyrrolidine-2-dimethylcarboxamide, trifluoroacetic acid salt]",< 1 nM
17,"COc1cc(CN2CCCC2)ccc1C1(N2CCC[C@H]2C(=O)N(C)C)C(=O)N(S(=O)(=O)c2ccc(Cl)cc2)c2ccc(Cl)cc21 (stereo partly drawn) [Example 4, (S)-1-[5-Chloro-1-(4-chlorobenzenesulfonyl)-3-(2-methoxy-4-pyrrolidin-1-ylmethyl-phenyl)-2-oxo-2,3-dihydro-1H-indol-3-yl]pyrrolidine-2-dimethylcarboxamide, trifluoroacetic acid salt]",< 1 nM
18,"COc1ccc(S(=O)(=O)N2C(=O)C(c3ccc(CN4CCCC4)cc3OC)(N3CCC[C@H]3C(=O)N(C)C)c3ccccc32)cc1 (stereo partly drawn) [Example 91, (S)-1-[1-(4-Methoxybenzenesulfonyl)-3-(2-methoxy-4-pyrrolidin-1-ylmethylphenyl)-2-oxo-2,3-dihydro-1H-indol-3-yl]pyrrolidine-2-dimethylcarboxamide, trifluoroacetic acid salt]",1 to 10 nM
19,"COc1ccc(S(=O)(=O)N2C(=O)C(c3cc(CN(C)C)ccc3OC)(N3CCC[C@H]3C(=O)N(C)C)c3cc(Cl)ccc32)cc1 (stereo partly drawn) [Example 17, (S)-1-[5-Chloro-3-(5-dimethylaminomethyl-2-methoxyphenyl)-1-(4-methoxy-benzene-sulfonyl)-2-oxo-2,3-dihydro-1H-indol-3-yl]pyrrolidine-2-dimethylcarboxamide, trifluoroacetic acid salt]",< 1 nM
20,"(S)-1-[3-(4-Aminomethyl-2-methoxyphenyl)-5-chloro-1-(4-fluorobenzenesulfonyl)-2-oxo-2,3-dihydro-1H-indol-3-yl]pyrrolidine-2-dimethylcarboxamide, trifluoroacetic acid salt [Example 75]",10 to 100 nM
